Reference: patent publication US20220323406A1, “METHODS AND COMPOSITIONS FOR DIFFERENTIATING STEM CELLS” (Massachusetts Institute of Technology, priority 2019, published 2022)

Key:
Conditions in all cases: primary screen
[1] = test system: ENR+CD organoids (ISC to Paneth cell differentiation); assay: Primary screen: basal (non-stimulated) lysozyme secretion LYZ.NS, 2.5-D 384-well ENR+CD organoid differentiation; format: cell-based, mouse
From the text: (§1) High-throughput screening.

[2] = test system: ENR+CD organoids (ISC to Paneth cell differentiation); assay: Primary screen: CCh-stimulated lysozyme secretion LYZ.S, 2.5-D 384-well ENR+CD organoid differentiation; format: cell-based, mouse
From the text: as §1

[3] = test system: ENR+CD organoids; assay: Primary screen: ATP (CellTiter-Glo 3D, CTG) cell number/viability, 2.5-D 384-well ENR+CD organoids;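 also: compounds given at plating and again on day 3 over a 6-day differentiation from ENR+CV stem-cell-enriched precursors, ATP measured on day 6, plate median as control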

| SMILES | Dose.FC.LYZ.NS ([1]; dose 0.08 uM) | Z.LYZ.NS (standard z score) ([1]; dose 0.08 uM) | Dose.FC.LYZ.NS ([1]; dose 0.40 uM) | Z.LYZ.NS (standard z score) ([1]; dose 0.40 uM) | Dose.FC.LYZ.NS ([1]; dose 2.00 uM) | Z.LYZ.NS (standard z score) ([1]; dose 2.00 uM) | Dose.FC.LYZ.NS ([1]; dose 10.00 uM) | Z.LYZ.NS (standard z score) ([1]; dose 10.00 uM) | Dose.FC.LYZ.S ([2]; dose 0.08 uM) | Dose.FC.LYZ.S ([2]; dose 0.40 uM) | Dose.FC.LYZ.S ([2]; dose 2.00 uM) | Dose.FC.LYZ.S ([2]; dose 10.00 uM) | Dose.FC.CTG ([3]; dose 0.08 uM) | Z.CTG (standard z score) ([3]; dose 0.08 uM) | Dose.FC.CTG ([3]; dose 0.40 uM) | Z.CTG (standard z score) ([3]; dose 0.40 uM) | Dose.FC.CTG ([3]; dose 2.00 uM) | Z.CTG (standard z score) ([3]; dose 2.00 uM) | Dose.FC.CTG ([3]; dose 10.00 uM) | Z.CTG (standard z score) ([3]; dose 10.00 uM) |
| --- | --- | --- | --- | --- | --- | --- | --- | --- | --- | --- | --- | --- | --- | --- | --- | --- | --- | --- | --- | --- |
| CCCS(=O)(=O)Nc1ccc(F)c(C(=O)c2c[nH]c3ncc(-c4ccc(Cl)cc4)cc23)c1F [Vemurafenib (PLX4032, RG7204)] | 0.090 log2 fold change | 0.786 | 0.053 log2 fold change | 0.462 | 0.047 log2 fold change | 0.411 | 0.030 log2 fold change | 0.263 | 0.120 log2 fold change | 0.150 log2 fold change | 0.055 log2 fold change | 0.022 log2 fold change | 0.124 log2 fold change | 0.297 | −0.082 log2 fold change | −0.195 | −0.006 log2 fold change | −0.014 | 0.030 log2 fold change | 0.073 |
| N#C[C@@H]1CCCN1C(=O)CNC12CC3CC(CC(O)(C3)C1)C2 [Vildagliptin (LAF-237)] | 0.148 log2 fold change | 1.285 | 0.230 log2 fold change | 2.004 | 0.170 log2 fold change | 1.478 | 0.097 log2 fold change | 0.846 | 0.099 log2 fold change | 0.113 log2 fold change | 0.038 log2 fold change | 0.013 log2 fold change | 0.232 log2 fold change | 0.553 | 0.229 log2 fold change | 0.547 | 0.150 log2 fold change | 0.358 | 0.339 log2 fold change | 0.811 |
| C[C@@H](c1ncncc1F)[C@](O)(Cn1cncn1)c1ccc(F)cc1F [Voriconazole] | 0.252 log2 fold change | 2.192 | 0.193 log2 fold change | 1.682 | 0.067 log2 fold change | 0.588 | 0.018 log2 fold change | 0.153 | 0.180 log2 fold change | 0.120 log2 fold change | 0.097 log2 fold change | 0.048 log2 fold change | 0.258 log2 fold change |  | 0.306 log2 fold change |  | 0.285 log2 fold change |  | 0.328 log2 fold change |  |
| c1ccc(NCc2ccc(CNc3ccccn3)cc2)nc1 [WZ811] | 0.154 log2 fold change | 1.337 | 0.019 log2 fold change | 0.162 | 0.094 log2 fold change | 0.815 | 0.005 log2 fold change | 0.045 | 0.296 log2 fold change | 0.007 log2 fold change | 0.074 log2 fold change | 0.019 log2 fold change | 0.140 log2 fold change | 0.334 | −0.034 log2 fold change | −0.082 | 0.077 log2 fold change | 0.184 | 0.044 log2 fold change | 0.104 |
| CCC(=O)Nc1cccc(Oc2nc(Nc3ccc(N4CCN(C)CC4)cc3OC)ncc2Cl)c1 [WZ4003] | 0.074 log2 fold change | 0.644 | −0.041 log2 fold change | −0.359 | −0.017 log2 fold change | −0.151 | −0.098 log2 fold change | −0.850 | 0.117 log2 fold change | −0.034 log2 fold change | −0.035 log2 fold change | −0.142 log2 fold change | 0.375 log2 fold change | 0.896 | 0.173 log2 fold change | 0.413 | 0.076 log2 fold change | 0.180 | −0.018 log2 fold change | −0.043 |
| Cc1cc(-c2ccc(CC(=O)Nc3ccc(-c4cccnc4)cc3)cc2)ccn1 [Wnt-C59 (C59)] | −0.163 log2 fold change | −1.424 | −0.182 log2 fold change | −1.588 | −0.198 log2 fold change | −1.724 | −0.191 log2 fold change | −1.666 | −0.242 log2 fold change | −0.281 log2 fold change | −0.313 log2 fold change | −0.301 log2 fold change | −0.572 log2 fold change | −1.366 | −0.611 log2 fold change | −1.461 | −0.627 log2 fold change | −1.498 | −0.613 log2 fold change | −1.465 |
| Oc1nc(-c2ccc(C(F)(F)F)cc2)nc2c1CSCC2 [XAV-939] | 0.058 log2 fold change | 0.505 | 0.020 log2 fold change | 0.177 | −0.044 log2 fold change | −0.386 | −0.131 log2 fold change | −1.142 | 0.074 log2 fold change | 0.085 log2 fold change | −0.068 log2 fold change | −0.231 log2 fold change | −0.332 log2 fold change |  | −0.027 log2 fold change |  | −0.355 log2 fold change |  | −0.899 log2 fold change |  |
| CC(C)OC(=O)C1=CN(C(=O)c2ccc(F)c(F)c2)CC(C)(C)c2c1[nH]c1ccccc21 [XL335] | 0.175 log2 fold change | 1.523 | −0.082 log2 fold change | −0.711 | −0.072 log2 fold change | −0.625 | −0.135 log2 fold change | −1.176 | 0.093 log2 fold change | −0.109 log2 fold change | 0.045 log2 fold change | −0.180 log2 fold change | 0.124 log2 fold change |  | −0.258 log2 fold change |  | −0.259 log2 fold change |  | −0.156 log2 fold change |  |
| COCC[n+]1c2c(n(Cc3cnccn3)c1C)C(=O)c1ccccc1C2=O.[Br-] [YM155 (Sepantronium Bromide)] | 0.114 log2 fold change | 0.995 | −0.031 log2 fold change | −0.266 | −0.082 log2 fold change | −0.714 | −0.096 log2 fold change | −0.839 | 0.172 log2 fold change | −0.039 log2 fold change | −0.137 log2 fold change | −0.210 log2 fold change | 0.222 log2 fold change | 0.531 | −0.083 log2 fold change | −0.198 | −0.460 log2 fold change | −1.100 | −0.970 log2 fold change | −2.316 |
| C[C@H](NC(=O)Cc1cc(F)cc(F)c1)C(=O)N[C@@H]1C(=O)N(C)c2ccccc2-c2ccccc21 [YO-01027] | 0.051 log2 fold change | 0.443 | 0.085 log2 fold change | 0.739 | −0.080 log2 fold change | −0.699 | −0.157 log2 fold change | −1.369 | 0.105 log2 fold change | −0.058 log2 fold change | −0.020 log2 fold change | −0.184 log2 fold change | 0.221 log2 fold change | 0.528 | −0.475 log2 fold change | −1.135 | −0.571 log2 fold change | −1.363 | −1.032 log2 fold change | −2.464 |
